Values quoted from earlier work as cited in US20050272698A1, “Liquid stable composition of oxazaphosphorine with mesna” (priority 2002, published 2005).

| SMILES | solubility in water |
| --- | --- |
| O=S(=O)([O-])CCS.[Na+] [Mesna, sodium-2-mercaptoethanesulphonate] | highly water soluble |
| O=P1(NCCCl)OCCCN1CCCl (centres unmarked) [Ifosfamide, 3-(2-chloroethyl)-2-[(2-chloroethyl)amino]tetrahydro-2H-1,3,2-oxazaphosphorin-2-oxide] | freely soluble in water |
